Among the data in patent US7498340B2, “Esters in position 20 of camptothecins” (priority 2002, dated 2009) are IC50 values, retold here.

Counter-ions that a name gives are not always drawn.

The first data set relates to NCI-H460. Particulars: read-out: Cytotoxicity test on H460 cells: IC50; H460 cells; printed as 42 nM±6.
With `CC[C@@]1(OC(=O)CCCBr)C(=O)OCc2c1cc1n(c2=O)Cc2c-1nc1ccccc1c2/C=N/OC(C)(C)C` [ST2599, (E)-7-tert-butoxyiminomethyl-20-O-(4-bromo)-butyryl-camptothecin], the IC50 came out at 42 nM.

The data set is the same for the next values; noted with them: read-out: NCI-H460 IC50; 2 h exposure, then 72 h recovery; concentration inhibiting 50% of cell survival; ALLFIT software.
“20-O-(terbutylglycyl)succinyl-camptothecin bromide [ST1453]”: the IC50 worked out at 260 nM. Same read-out and setting: with `CCC1(OC(=O)CCC(=O)NCCN(C)C)C(=O)OCc2c1cc1n(c2=O)Cc2c-1nc1ccccc1c2C=NOC(C)(C)C` (stereo not shown) [ST1657, (E)-7-tert-butoxyiminomethyl-20-O-[2-(dimethylamino)ethylamino]succinyl-camptothecin hydrochloride] the figure was 12 nM; with `CCC1(OC(=O)CCC[N+](C)(C)C)C(=O)OCc2c1cc1n(c2=O)Cc2c-1nc1ccccc1c2C=NOC(C)(C)C` (stereo not shown) [ST2200, (E)-7-tert-butoxyiminomethyl-20-O-(4-trimethylammonium)-butanoyl-camptothecin bromide], 17 nM. The same measure, in the same setting: the same measure for `CC[C@@]1(OC(=O)CCC(=O)NCC(=O)O)C(=O)OCc2c1cc1n(c2=O)Cc2cc3ccccc3nc2-1` [ST1452, 20-O-(glycyl)succinyl-camptothecin]: 1600 nM; for “7-ter-butoxyiminomethyl-20-O-(2-methoxy-phenyl-glycyl)succinyl-camptothecin [ST1617]”: 29 nM. Regarding `CC[C@@]1(OC(=O)CCC(=O)NCC(=O)OC(C)(C)C)C(=O)OCc2c1cc1n(c2=O)Cc2c-1nc1ccccc1c2C=NOC(C)(C)C` [ST1616, 7-ter-butoxyiminomethyl-20-O-(terbutylglycyl)succinyl-camptothecin], the IC50 was 4 nM. The same measure, in the same setting: the same measure for “(E)-7-tert-butoxyiminomethyl-20-O-(4-trimethyl-ammonium-3-hydroxy)butanoyl-camptothecin bromide [ST2204]”: 41 nM; for “20-O-(benzylglycyl)succinyl-camptothecin [ST1451]”: 150 nM; for “20-O-(2-methoxyphenylglycyl)succinyl-camptothecin [ST1454]”: 160 nM.

A word on the IC50: it is the concentration that inhibits the measured activity by half.
